Data reported in patent publication US20200000752A1, “Method for Treating Epilepsy” (Vanderbilt University, priority 2016, published 2020).

What was measured:
Scn1a^+/− mice = test: Early intermittent dosing, survival of Scn1a+/- mice; format: in vivo, mouse; conditions: 0.3 mg/kg intermittent from postnatal day 7; untreated ~60% mortality by week 7
From the text: (§1) (FIG. 5B, C). Gabrg2^+/Q390X mice in C57/BL/6J background had ˜25% of mortality (B) while Scn1a^+/− mice in C57/BL/6J background had ˜60% of mortality by week 7 (C). […] The Gabrg2^+/Q390X mice were in C57/BL/6J background while Scn1a^+/− sires were from mixed S129/C57BL/6J and the dams were congenic C57/BL/6J. For each mouse model, heterozygous pups of both male and female from 6-8 litters were included.

[1] = tested on: GABAA receptor α1 and γ2 subunits; test: Surface and total GABAA receptor subunit expression in Gabrg2+/Q390X mice; format: in vivo, mouse
Experimental: As shown in FIG. 14A upper panel, the surface proteins (FIG. 14A) from the live mouse brain slices were biotinylated and analyzed by SDS-PAGE and immunoblotted with anti-γ2 or anti-al subunit antibody. In the lower panel, the protein from total lysates of cortex was analyzed by SDS-PAGE and immunoblotted with anti-γ2 subunit antibody. LC is the loading control GAPDH in the blots. FIG. 14B charts the protein IDVs of surface wild-type γ2 or al subunits (upper panel) or total level wild-type γ2 subunits (lower panel) were normalized to its loading control and then to that in untreated wild-type mice which was arbitrarily taken as 1.

PI3K/AKT pathway = PI3K/AKT pathway activation in vitro; format: cell-based
AppSWE/PsenIdE9 mice = conditions: mouse, in vivo; cited from earlier work
AKT, active caspase 3 = test: P-AKT immunoblot and active caspase 3 staining in cells and Gabrg2+/Q390X mice; parameters: species or system mouse
Experimental: Total lysates from HEK 293T cells expressing the wild-type (wt) or the mutant α1β2γ2(Q390X) (mut) receptors (FIG. 17A) or from Gabrg2^+/Q390X mouse cortex (17B) were analyzed by SDS-PAGE. The membranes were immunoblotted with the phosphorylated AKT (P-AKT). FIG. 17C. Paraffin-embedded brain sections from 1 year old wild-type (wt) and heterozygous Gabrg2^+/Q390X (het) mice were stained with the active form of caspase 3 (green) and NeuN (red). The cell nuclei were stained with TO-PRO-3 (blue).

Gabrg2^+/Q390X mice [2] = test: EEG spike-wave discharges (SWD) in Gabrg2+/Q390X mice after 14 days dosing; format: in vivo, mouse
Experimental: (FIG. 4A). […] . (FIG. 4B). In 4B, the mice were recorded for 24 hrs for EEGs and a uniform 5-min of EEGs was scored for each hour. The SWDs with duration >1 sec were quantified.

Gabrb3^+/− mice = test: Barnes maze, Gabrb3+/- mice; format: in vivo, mouse; conditions: 0.3 mg/kg IP for 2 weeks, 6-8 months old
Experimental: Flow chart in FIG. 13A depicts an overview of the Barnes maze. In training trials which are considered as learning test, time spent to locate the target hole was recorded and quantified for each day in each mouse genotype. In probe trials which are considered as memory test, an hour after the last training trial, each mouse was allotted a 300 sec session to find the target hole. […]. The total time spent at each of the 12 holes was assessed.

GABAergic mIPSCs = GABAergic mIPSCs in cortical layer VI pyramidal neurons of Gabrg2+/Q390X mice; format: in vivo, mouse
From the text: […]. This effect is consistent with its upregulation of GABAA receptor subunits. There is no difference between the decay tau (time constant) in the condition treated with celastrol vs non treated. (n=7-9 cells from 3 mice in each group, *P<0.05, ** P<0.01 vs het).
Coronal ([…]) or horizontal ([…] thick) brain slices containing thalamic neurons in nucleus reticularis thalami (nRT), ventrobasal nucleus (VBn), Ventral lateral thalamus (VL) and cortex will be sectioned with a vibratome in ice-cooled solution containing (in mM) 214 Sucrose, 2.5 KCl, 1.25 NaH2PO4, 0.5 CaCl2), 10 MgSO4, 24 NaHCO3, and 11 D-glucose, pH 7.4 bubbled with 95% O2/5% CO2 at 4° C. Slices are then incubated in oxygenated artificial cerebrospinal fluid (ACSF)^40 at 36° C. for 30 min (Moyer and Brown, 1998). After this, slices will be kept at room temperature for at least 1 hr before recording on a Nikon Eclipse FN-1 IR-DIC microscope at room temperature. Pipette internal solution will contain (in mM): 135 CsCl, 10 EGTA, 10 HEPES, 5 ATP-Mg, and QX-314 (5 mM) (pH 7.25, 290-295 mOsm), and resistances will be of 2-4 MΩ (25). Tetrodotoxin (TIX) 1 μm will be added to the external solution. We will record the neurons in layer V-VI in somatosemsory cortex in this application. The experimental details have been described before^39.

[3] = PK of celastrol from IV, IP and PO studies in C57BL/6J mice; conditions: male, mouse, whole blood
Gabrg2^+/Q390X mice [4] = test: Early intermittent dosing, survival of Gabrg2+/Q390X mice; format: in vivo, mouse; conditions: 0.3 mg/kg intermittent from postnatal day 7; untreated ~25% mortality
From the text: as §1

CC1=C(O)C(=O)C=C2C1=CC=C1[C@@]2(C)CC[C@@]2(C)[C@@H]3C[C@](C)(C(=O)O)CC[C@]3(C)CC[C@]12C [Celastrol, 3-Hydroxy-9β,13α-dimethyl-2-oxo-24,25,26-trinoroleana-1(10),3,5,7-tetraen-29-oic acid]
survival (Scn1a^+/− mice): completely rescued the survival | surface and total α1 and γ2 subunits ([1]; 0.3 mg/kg IP for 14 days, n=4 mice): increase of both the surface and total α1 and γ2 subunits were greater in the mutant mice than in the wildtype | increase of surface γ2 subunits compared with mutant mice treated with vehicle ([1]; 0.3 mg/kg, ip): 40-50% | PI3K/AKT pathway (PI3K/AKT pathway): activate PI3K/AKT pathway | memory (AppSWE/PsenIdE9 mice): improve memory | active caspase 3 (AKT, active caspase 3; 0.3 mg/kg IP 2 weeks): Reducing Active Caspase 3 | AKT (P-AKT) (AKT, active caspase 3; 0.3 mg/kg IP 2 weeks in mice, HEK 293T cells): Activating AKT | efficacy and tolerability (Gabrg2^+/Q390X mice [2]; 0.3 mg/kg IP daily for 14 days): good efficacy and tolerability | seizures (Gabrg2^+/Q390X mice [2]; 1 and 5 mg/kg via oral gavage): seizure reduction | frequency of SWDs (Gabrg2^+/Q390X mice [2]; IP or oral gavage daily for 14 days, SWDs >1 sec, 24 hrs EEG): dose dependently reduced | time spent at target hole in probe trial (Gabrb3^+/− mice): spent more time in the target hole area | amplitude of GABAergic mIPSCs (GABAergic mIPSCs; 0.3 mg/kg IP for 14 days): increased | frequency of GABAergic mIPSCs (GABAergic mIPSCs; 0.3 mg/kg IP for 14 days): increased | decay tau (time constant) (GABAergic mIPSCs; treated vs non treated): no difference | bioavailability [3]: ~20% | bioavailability ([3]; 10 mg/kg): 20% | survival (Gabrg2^+/Q390X mice [4]): completely rescued the survival
